Experimental data published in PubChem BioAssay AID300 (DTP/NCI, 2004).
Results filed as inconclusive are left out. The calls were made as follows: active = survival T/C of 150% or more; inactive = T/C below 125% in these data. *1 amine or outer side, *2 acyl side, *3 side chain or, on linkers, in order; H or OH if unused. Where a SMILES comes first, the peptide text is derived from it. Bridges are numbered along the chain shown (N, C = ends). Roman numbers before positions name the chains, in order. [ ]: non-standard residue; d: D form. Actinocin(9to1) = Cc1c2oc3c(C)ccc(C(=O)[*:1])c3nc-2c(C(=O)[*:2])c(N)c1=O; NMeV = CN[CH](C(=O)O)C(C)C; Sar = CNCC(=O)O

System: Madison 109 lung carcinoma i.m., mice, median survival
Assay: NCI In Vivo Anticancer Drug Screen. Data for tumor model Madison 109 Lung Carcinoma (intramuscular) in unknown mice
Settings: endpoint: median survival time, schedule: Q01DX009 (ip), higher = longer survival
Description: The antitumor activity of compounds was measured in mice bearing transplantable tumors. Survival or tumor size were measured and the results are expressed as the measurement made in the treated group (T) divided by the measurement made in the vehicle treated control group (C). The tumor model used in this assay is Madison 109 Lung Carcinoma (intramuscular) in unknown mice

Measured: T/C

S=P(N1CC1)(N1CC1)N1CC1
inactive: dose: 1.5 mg/kg/injection, vehicle: water 110 % of control | dose: 2.5 mg/kg/injection, vehicle: water 101 % of control | dose: 3.0 mg/kg/injection, vehicle: water 92 % of control | dose: 5.0 mg/kg/injection, vehicle: water 109 % of control | dose: 6.0 mg/kg/injection, vehicle: water 105 % of control | dose: 10.0 mg/kg/injection, vehicle: water 107 % of control | dose: 40.0 mg/kg/injection, vehicle: water 110 % of control

Cc1c2oc3c(C)ccc(C(=O)NC4C(=O)NC(C(C)C)C(=O)N5CCCC5C(=O)N(C)CC(=O)N(C)C(C(C)C)C(=O)OC4C)c3nc-2c(C(=O)NC2C(=O)NC(C(C)C)C(=O)N3CCCC3C(=O)N(C)CC(=O)N(C)C(C(C)C)C(=O)OC2C)c(N)c1=O (stereo not drawn) (I: TVP[Sar][NMeV] / II: TVP[Sar][NMeV]; ester I:1-I:C, II:1-II:C; linker I:N-II:N via Actinocin(9to1); configuration not given here)
inactive: dose: 0.64 mg/kg/injection, vehicle: water 118 % of control | dose: 0.84 mg/kg/injection, vehicle: water 124 % of control

CN(Cc1cnc2nc(N)nc(N)c2n1)c1ccc(C(=O)N[C@@H](CCC(=O)O)C(=O)O)cc1
inactive: dose: 0.07 mg/kg/injection, vehicle: sodium bicarbonate 99 % of control | dose: 0.15 mg/kg/injection, vehicle: sodium bicarbonate 123 % of control | dose: 0.3 mg/kg/injection, vehicle: sodium bicarbonate 108 % of control | dose: 0.6 mg/kg/injection, vehicle: sodium bicarbonate 111 % of control
